In ChEMBL document CHEMBL1614632, “Trend analysis of a database of intravenous pharmacokinetic parameters in humans for 670 drug compounds” (Drug Metab Dispos, 2008):

Columns and labels:
clinical [1] = settings: human, in vivo, iv, Vdss
clinical [2] = settings: human, in vivo, iv, CL
clinical [3] = settings: human, in vivo, iv
clinical [4] = settings: human, in vivo, iv; remark: listed apart in the source
clinical [5] = settings: human, in vivo, iv, t1/2

| Structure (SMILES) | Vd (clinical [1]) [L/kg] | clearance (clinical [2]) [mL/min/kg] | fraction unbound (clinical [3]) | MRT (clinical [4]) [h] | half-life (clinical [5]) [h] |
| --- | --- | --- | --- | --- | --- |
| C#C[C@]1(O)CC[C@H]2[C@@H]3CCc4cc(OS(=O)(=O)O)ccc4[C@H]3CC[C@@]21C | 2.3 | 4.7 | 0.011 | 8.2 | 8.4 |
| COc1cc2c3cc1Oc1cc(ccc1O)C[C@@H]1c4c(cc(OC)c(O)c4Oc4ccc(cc4)C[C@@H]3N(C)CC2)CC[N+]1(C)C.[Cl-] | 0.45 | 3.4 | 0.58 | 2.2 | 2 |
| CO/N=C(\C(=O)N[C@@H]1C(=O)N2C(C(=O)O)=C(C)CS[C@H]12)c1csc(N)n1 | 0.28 | 1.9 | 0.78 | 2.5 | 2.1 |
| C=C[C@@]1(O)C[N+]2(C)CC[C@H]1C[C@@H]2[C@@H](O)c1ccnc2ccc(OC)cc12 | 6.8 | 12 | 0.47 | 9.4 | 6.7 |
| CCCCCCCCCC(=O)N[C@@H](Cc1c[nH]c2ccccc12)C(=O)N[C@H](CC(N)=O)C(=O)N[C@@H](CC(=O)O)C(=O)N[C@@H]1C(=O)NCC(=O)N[C@@H](CCCN)C(=O)N[C@@H](CC(=O)O)C(=O)N[C@H](C)C(=O)N[C@@H](CC(=O)O)C(=O)NCC(=O)N[C@H](CO)C(=O)N[C@@H]([C@H](C)CC(=O)O)C(=O)N[C@@H](CC(=O)c2ccccc2N)C(=O)O[C@@H]1C | 0.088 | 0.16 | 0.083 | 9.2 | 8.1 |
| Nc1nc(N)c2nc(-c3ccccc3)c(N)nc2n1 | 13 | 63 | 0.42 | 3.4 | 4.3 |
| C=C1CC[C@@]2(O)[C@H]3Cc4ccc(O)c5c4[C@@]2(CCN3CC2CC2)[C@H]1O5 | 8.2 | 15 | 0.65 | 9.1 | 8.8 |
| CN(C)CCCN1c2ccccc2CCc2cc(O)ccc21 [2-HYDROXYIMIPRAMINE] | 6.6 | 9.2 | 0.36 | 12 | 10 |
| CC[C@@]1(O)C(=O)OCc2c1cc1n(c2=O)Cc2cc3c(N)cccc3nc2-1 [9-AMINOCAMPTOTHECIN] | 2.2 | 6.5 | 0.003 | 5.6 | 7 |
| Nc1nc(NC2CC2)c2ncn([C@H]3C=C[C@@H](CO)C3)c2n1 [ABACAVIR] | 0.84 | 13 | 0.5 | 1.1 | 1 |
| CCN(CC)CCNC(=O)c1ccc(NC(C)=O)cc1 [ACECAINIDE] | 1.9 | 4 | 0.9 | 7.9 | 6.4 |
| CC(=O)Nc1nnc(S(N)(=O)=O)s1 [ACETAZOLAMIDE] | 0.37 | 0.65 | 0.04 | 9.5 | 13 |
| CC(=O)N[C@@H](CS)C(=O)O [ACETYLCYSTEINE] | 0.55 | 3.1 | 0.17 | 3 | 5.5 |
| CN(C)CCc1c[nH]c2ccc(CS(=O)(=O)N3CCCC3)cc12 [ALMOTRIPTAN] | 2.2 | 8.9 | 0.6 | 4.2 | 3.4 |
| CN1CC[C@H](c2c(O)cc(O)c3c(=O)cc(-c4ccccc4Cl)oc23)[C@H](O)C1 [ALVOCIDIB] | 1.5 | 6.1 | 0.06 | 4 | 5.2 |
| NCC[C@H](O)C(=O)N[C@@H]1C[C@H](N)[C@@H](O[C@H]2O[C@H](CN)[C@@H](O)[C@H](O)[C@H]2O)[C@H](O)[C@H]1O[C@H]1O[C@H](CO)[C@@H](O)[C@H](N)[C@H]1O [AMIKACIN] | 0.16 | 1.1 | 0.88 | 2.4 | 2.4 |
| NCCCCCC(=O)O [AMINOCAPROIC ACID] | 0.39 | 2.5 | 0.92 | 2.6 | 4.9 |
| COc1cc(NS(C)(=O)=O)ccc1Nc1c2ccccc2nc2ccccc12 [AMSACRINE] | 1.6 | 4.3 | 0.029 | 6.2 | 4.7 |
| CCCC1C(=O)N2C(N(C)C)=Nc3ccc(C)cc3N2C1=O (stereo not given) [APAZONE] | 0.12 | 0.14 | 0.004 | 14 | 17 |
| O=C1CCc2ccc(OCCCCN3CCN(c4cccc(Cl)c4Cl)CC3)cc2N1 [ARIPIPRAZOLE] | 4.9 | 0.83 | 0.01 | 98 | 75 |
| CC(=O)Oc1ccccc1C(=O)O [ASPIRIN] | 0.22 | 12 | 0.68 | 0.3 | 0.26 |

| Structure (SMILES) | Vd (clinical [1]) [L/kg] | clearance (clinical [2]) [mL/min/kg] | fraction unbound (clinical [3]) | MRT (clinical [4]) [h] | half-life (clinical [5]) [h] |
| --- | --- | --- | --- | --- | --- |
| CNC(=O)c1cccc2c(Nc3ccc(NS(C)(=O)=O)cc3OC)c3cccc(C)c3nc12 [ASULACRINE] | 0.3 | 2.6 | 0.0011 | 1.9 | 2.4 |
| O=C1C(O)=C([C@H]2CC[C@H](c3ccc(Cl)cc3)CC2)C(=O)c2ccccc21 [ATOVAQUONE] | 0.6 | 0.15 | 0.001 | 67 | 63 |
| CN1CCN(CCCCN2C(=O)CN(/N=C/c3ccc(-c4ccc(Cl)cc4)o3)C2=O)CC1 [AZIMILIDE] | 13 | 2.4 | 0.06 | 100 | 79 |
| CC1(C)S[C@@H]2[C@H](NC(=O)[C@H](NC(=O)N3CCNC3=O)c3ccccc3)C(=O)N2[C@H]1C(=O)O [AZLOCILLIN] | 0.26 | 2.5 | 0.65 | 1.7 | 1.2 |
| CCC(=O)OCC(=O)[C@@]1(OC(=O)CC)[C@@H](C)C[C@H]2[C@@H]3CCC4=CC(=O)C=C[C@]4(C)[C@@]3(Cl)[C@@H](O)C[C@@]21C [BECLOMETHASONE DIPROPIONATE] | 0.29 | 36 | 0.13 | 0.1 | 0.5 |
| COc1ccc(CCNCC(O)COc2cccc(C)c2)cc1OC (stereo not given) [BEVANTOLOL] | 0.67 | 5.5 | 0.015 | 2 | 1.9 |
| C[C@@H](O)[C@H]1C(=O)N2C(C(=O)[O-])=C(SC3Cn4cnc[n+]4C3)[C@H](C)[C@H]12 (stereo not given in full) [BIAPENEM] | 0.2 | 2.5 | 0.92 | 1.3 | 1.1 |
| COc1ccccc1Oc1c(NS(=O)(=O)c2ccc(C(C)(C)C)cc2)nc(-c2ncccn2)nc1OCCO [BOSENTAN] | 0.29 | 2.1 | 0.037 | 2.3 | 4.1 |
| Nc1c(CC(=O)O)cccc1C(=O)c1ccc(Br)cc1 [BROMFENAC] | 0.11 | 1.3 | 0.0011 | 1.5 | 2.6 |
| CCN(CC)CCNC(=O)c1cc(Br)c(N)cc1OC [BROMOPRIDE] | 3.1 | 13 | 0.6 | 4 | 2.9 |
| Cc1nnc2n1-c1sc(Br)cc1C(c1ccccc1Cl)=NC2 [BROTIZOLAM] | 0.75 | 2 | 0.092 | 6 | 4.8 |
| CCCC(=O)N1CCCN(c2nc(N)c3cc(OC)c(OC)cc3n2)CC1 [BUNAZOSIN] | 0.72 | 4.8 | 0.06 | 2.5 | 2 |
| Oc1ccc2c(c1)[C@@]13CCCC[C@@]1(O)[C@@H](C2)N(CC1CCC1)CC3 [BUTORPHANOL] | 12 | 41 | 0.17 | 5.3 | 4.8 |
| O=NN(CCCl)C(=O)NCCCl [CARMUSTINE] | 1.2 | 78 | 0.23 | 0.26 | 0.37 |
| NC(=O)OC[C@@H]1[C@H](NC(=O)/C(=N\OCC(=O)O)c2csc(N)n2)C(=O)N1S(=O)(=O)O [CARUMONAM] | 0.18 | 1.5 | 0.72 | 2 | 1.6 |
| Cn1nnnc1SCC1=C(C(=O)O)N2C(=O)[C@@H](NC(=O)[C@H](O)c3ccccc3)[C@H]2SC1 [CEFAMANDOLE] | 0.16 | 3.6 | 0.25 | 0.75 | 0.75 |
| CO[C@@]1(NC(=O)CSCC#N)C(=O)N2C(C(=O)O)=C(CSc3nnnn3C)CS[C@@H]21 [CEFMETAZOLE] | 0.13 | 1.5 | 0.15 | 1.5 | 1.5 |
| CO/N=C(\C(=O)N[C@@H]1C(=O)N2C(C(=O)O)=C(CSc3nc(C)c(CC(=O)O)s3)CS[C@H]12)c1csc(N)n1 [CEFODIZIME] | 0.054 | 0.61 | 0.18 | 1.5 | 4.2 |
| NCc1ccccc1CC(=O)N[C@@H]1C(=O)N2C(C(=O)O)=C(CSc3nnnn3CC(=O)O)CS[C@H]12 [CEFORANIDE] | 0.17 | 0.66 | 0.19 | 4.3 | 3 |
| CO/N=C(\C(=O)N[C@@H]1C(=O)N2C(C(=O)O)=C(COC(C)=O)CS[C@H]12)c1csc(N)n1 [CEFOTAXIME] | 0.19 | 2.7 | 0.6 | 1.2 | 1.2 |
| CO[C@@]1(NC(=O)Cc2cccs2)C(=O)N2C(C(=O)O)=C(COC(N)=O)CS[C@@H]21 [CEFOXITIN] | 0.17 | 3.6 | 0.73 | 0.79 | 0.81 |
